From patent publication US8350062B2, “Synthesis and anticancer activity of new actin-targeting small-molecule agents” (priority 2009, dated 2013)

Experiments:
Assay in all cases: NCI 60 cell line single dose screen
Format in all cases: cell-based, human
EKVX = EKVX (Non-Small Cell Lung Cancer), 10 micromolar, 48 h
Outline: (§1)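 10 uM single dose; 48 h exposure, 37° C, 5% CO2; RPMI 1640/5% FBS. TCA fix, SRB stain, A515. % growth from Tz, C, Ti.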

HCT-15 = HCT-15 (Colon Cancer), 10 micromolar, 48 h
Outline: as §1

CCRF-CEM = CCRF-CEM (Leukemia), 10 micromolar, 48 h
Outline: as §1

SF-295 = SF-295 (CNS Cancer), 10 micromolar, 48 h
Outline: as §1

SNB-19 = SNB-19 (CNS Cancer), 10 micromolar, 48 h
Outline: as §1

OVCAR-8 = OVCAR-8 (Ovarian Cancer), 10 micromolar, 48 h
Outline: as §1

M14 = M14 (Melanoma), 10 micromolar, 48 h
Outline: as §1

SK-MEL-5 = SK-MEL-5 (Melanoma), 10 micromolar, 48 h
Outline: as §1

MDA-MB-231/ATCC = MDA-MB-231/ATCC (Breast Cancer), 10 micromolar, 48 h
Outline: as §1

## COCCC(=O)NC[C@H](O)[C@H](C)C(=O)NCCC[C@H]1O[C@@]2(CCC[C@@H](CC[C@H](C)/C=C(\C)[C@H](C)O)O2)CCC1C (stereo partly drawn) [Analog 10]
EKVX
  Growth Percent: 29.10%
HCT-15
  Growth Percent: 58.89%
CCRF-CEM
  Growth Percent: 24.00%
SF-295
  Growth Percent: 13.26%
SNB-19
  Growth Percent: 75.95%
OVCAR-8
  Growth Percent: 90.22%
M14
  Growth Percent: 71.74%
SK-MEL-5
  Growth Percent: 75.27%
MDA-MB-231/ATCC
  Growth Percent: 43.18%
